# In patent US11524968B2, “Heterocyclic compound as a protein kinase inhibitor” (HK inno.N Corporation, priority 2017, dated 2022):
# Target: JAK1 (Homo sapiens (Human), UniProt P23458)
# Test: Analysis of JAK1 activity inhibition ability (ADP-Glo Kinase Assay)
# Assay type: biochemical
# Conditions: JAK1 enzyme, ADP-Glo luminescence, ATP 250 uM, IRS-itide substrate, 30° C. 40 minutes; read-out: IC50
# Method in brief: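 JAK1 enzyme, IRS-itide substrate (40 ng/mL) and 250 uM ATP, both as prepared in kinase buffer (Tris-HCl pH 7.5, MgCl2, BSA, DTT), reacted with compound 40 min at 30 °C. ADP formed was detected by ADP-Glo luminescence; IC50 is the concentration giving 50% inhibition versus control.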
# Chain of JAK1 (P23458 whole entry): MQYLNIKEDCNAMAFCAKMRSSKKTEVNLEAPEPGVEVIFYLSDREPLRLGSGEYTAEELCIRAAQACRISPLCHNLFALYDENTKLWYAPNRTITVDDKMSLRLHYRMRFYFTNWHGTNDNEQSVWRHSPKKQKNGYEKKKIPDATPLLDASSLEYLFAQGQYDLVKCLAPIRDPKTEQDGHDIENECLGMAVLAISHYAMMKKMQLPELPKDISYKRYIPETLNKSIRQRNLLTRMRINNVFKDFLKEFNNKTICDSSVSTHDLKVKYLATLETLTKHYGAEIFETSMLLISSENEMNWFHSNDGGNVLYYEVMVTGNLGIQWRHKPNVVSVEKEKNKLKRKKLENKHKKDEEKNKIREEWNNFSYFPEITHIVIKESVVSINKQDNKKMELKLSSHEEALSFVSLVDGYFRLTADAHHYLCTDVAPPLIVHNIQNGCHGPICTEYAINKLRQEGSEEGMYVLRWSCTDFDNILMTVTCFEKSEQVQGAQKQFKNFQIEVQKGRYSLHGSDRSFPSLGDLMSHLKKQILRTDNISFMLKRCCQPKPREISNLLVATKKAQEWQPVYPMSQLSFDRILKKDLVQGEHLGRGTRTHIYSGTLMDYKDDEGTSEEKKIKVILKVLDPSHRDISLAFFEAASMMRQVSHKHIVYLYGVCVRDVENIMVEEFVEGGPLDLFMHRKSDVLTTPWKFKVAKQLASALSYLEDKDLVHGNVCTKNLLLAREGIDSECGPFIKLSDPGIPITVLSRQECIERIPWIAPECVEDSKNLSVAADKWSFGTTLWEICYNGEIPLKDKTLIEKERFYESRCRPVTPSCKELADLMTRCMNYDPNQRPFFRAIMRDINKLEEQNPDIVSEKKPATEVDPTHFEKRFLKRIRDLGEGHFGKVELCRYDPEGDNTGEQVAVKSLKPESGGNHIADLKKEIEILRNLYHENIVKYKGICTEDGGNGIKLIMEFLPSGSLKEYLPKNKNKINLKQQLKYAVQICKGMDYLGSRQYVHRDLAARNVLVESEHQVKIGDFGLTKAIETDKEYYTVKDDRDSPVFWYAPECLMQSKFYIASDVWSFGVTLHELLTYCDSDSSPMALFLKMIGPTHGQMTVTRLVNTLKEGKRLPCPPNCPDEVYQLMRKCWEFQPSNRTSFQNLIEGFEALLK
row,Structure (SMILES),IC50
1,"N#CCC(=O)N1CCC(Nc2ccc(-c3cc(NC(=O)C4CC4)nc4[nH]ccc34)cc2)CC1 [Example 516, N-(4-(4-((1-(2-cyanoacetyl)piperidin-4-yl)amino)phenyl)-1H-pyrrolo[2,3-b]pyridin-6-yl)cyclopropanecarboxamide]",20 to 200 nM
2,"Cc1ccsc1C(=O)N1CC=C(c2cc(NC(=O)C3CC3)nc3[nH]ccc23)C(C)C1 (centres unmarked) [Example 342, N-(4-(3-methyl-1-(3-methylthiophene-2-carbonyl)-1,2,3,6-tetrahydropyridin-4-yl)-1H-pyrrolo[2,3-b]pyridin-6-yl)cyclopropanecarboxamide]",20 to 200 nM
3,"O=C(Nc1cc(-c2ccc(CC(=O)N3CCCCC3)cc2)c2cc[nH]c2n1)C1CC1 [Example 557, N-(4-(4-(2-oxo-2-(piperidin-1-yl)ethyl)phenyl)-1H-pyrrolo[2,3-b]pyridin-6-yl)cyclopropanecarboxamide]",20 to 200 nM
4,"O=C(Cc1ccc(-c2cc(NC(=O)C3CC3)nc3[nH]ccc23)cc1)Nc1ccon1 [Example 544, N-(4-(4-(2-(isoxazol-3-ylamino)-2-oxoethyl)phenyl)-1H-pyrrolo[2,3-b]pyridin-6-yl)cyclopropanecarboxamide]",20 to 200 nM
5,"O=C(Nc1nc(N2CC3CCC(C2)N3CC(=O)N2CCS(=O)(=O)CC2)c2cc[nH]c2n1)C1CC1 [Example 704, N-(4-(8-(2-(1,1-dioxidothiomorpholino)-2-oxoethyl)-3,8-diazabicyclo[3.2.1]octan-3-yl)-7H-pyrrolo[2,3-d]pyrimidin-2-yl)cyclopropanecarboxamide]",> 200 nM
6,"N#CC1CN(Cc2ccc(-c3cc(NC(=O)C4CC4)nc4[nH]ccc34)cc2)C1 [Example 586, N-(4-(4-((3-cyanoazetidin-1-yl)methyl)phenyl)-1H-pyrrolo[2,3-b]pyridin-6-yl)cyclopropanecarboxamide]",20 to 200 nM
7,"O=C(Nc1nc(-c2ccc(NS(=O)(=O)c3ccc(Br)cc3)cc2)c2cc[nH]c2n1)C1CC1 [Example 189, N-(4-(4-((4-bromophenyl)sulfonamido)phenyl)-7H-pyrrolo[2,3-d]pyrimidin-2-yl)cyclopropanecarboxamide]",20 to 200 nM
8,"CCc1cc(-c2cc(NC(=O)C3CC3)nc3[nH]ccc23)cc(CC)c1NS(=O)(=O)CC1(C#N)CC1 [Example 138, N-(4-(4-(((1-cyanocyclopropyl)methyl)sulfonamido)-3,5-diethylphenyl)-1H-pyrrolo[2,3-b]pyridin-6-yl)cyclopropanecarboxamide]",> 200 nM
9,"O=C(Nc1cc(C2=CCN(C(=O)C3CC(F)(F)C3)CC2)c2cc[nH]c2n1)C1CC1 [Example 260, N-(4-(1-(3,3-difluorocyclobutane-1-carbonyl)-1,2,3,6-tetrahydropyridin-4-yl)-1H-pyrrolo[2,3-b]pyridin-6-yl)cyclopropanecarboxamide]",20 to 200 nM
10,"C[C@@H]1CN(C(=O)CC#N)CC=C1c1cc(N)nc2[nH]ccc12 [Example 705, (S)-3-(4-(6-amino-1H-pyrrolo[2,3-b]pyridin-4-yl)-3-methyl-3,6-dihydropyridin-1 (2H)-yl)-3-oxopropanenitrile]",> 200 nM
11,"O=C(Nc1cc(-c2ccc(CC(=O)N3CCNCC3)cc2)c2cc[nH]c2n1)C1CC1 [Example 558, N-(4-(4-(2-oxo-2-(piperazin-1-yl)ethyl)phenyl)-1H-pyrrolo[2,3-b]pyridin-6-yl)cyclopropanecarboxamide]",> 200 nM
12,"Cn1ccc(NC(=O)Cc2ccc(-c3cc(NC(=O)C4CC4)nc4[nH]ccc34)cc2)n1 [Example 556, N-(4-(4-(2-((1-methyl-1H-pyrazol-3-yl)amino)-2-oxoethyl)phenyl)-1H-pyrrolo[2,3-b]pyridin-6-yl)cyclopropanecarboxamide]",20 to 200 nM
13,"O=C(Nc1cc(-c2ccc(OCc3ccc(F)cc3)cc2)c2cc[nH]c2n1)C1CC1 [Example 641, N-(4-(4-((4-fluorobenzyl)oxy)phenyl)-1H-pyrrolo[2,3-b]pyridin-6-yl)cyclopropanecarboxamide]",> 200 nM
14,"N#CCC(=O)N1CC=C(c2cc(NC(=O)C3CC3)nc3[nH]ccc23)CCC1 [Example 422, N-(4-(1-(2-cyanoacetyl)-2,5,6,7-tetrahydro-1H-azepin-4-yl)-1H-pyrrolo[2,3-b]pyridin-6-yl)cyclopropanecarboxamide]",< 20 nM
15,"CCc1cc(-c2cc(NC(=O)C3CC3)nc3[nH]ccc23)cc(CC)c1NS(=O)(=O)c1ccc(F)c(F)c1 [Example 139, N-(4-(4-((3,4-difluorophenyl)sulfonamido)-3,5-diethylphenyl)-1H-pyrrolo[2,3-b]pyridin-6-yl)cyclopropanecarboxamide]",> 200 nM
16,"CS(=O)(=O)N1CCN(S(=O)(=O)Nc2ccc(-c3cc(NC(=O)C4CC4)nc4[nH]ccc34)cc2)CC1 [Example 230, N-(4-(4-((4-(methylsulfonyl)piperazine)-1-sulfonamido)phenyl)-1H-pyrrolo[2,3-b]pyridin-6-yl)cyclopropanecarboxamide]",< 20 nM
17,"CCC1CN(C(=O)CCC#N)CC=C1c1cc(NC(=O)C2CC2)nc2[nH]ccc12 (centres unmarked) [Example 295, N-(4-(1-(3-cyanopropanoyl)-3-ethyl-1,2,3,6-tetrahydropyridin-4-yl)-1H-pyrrolo[2,3-b]pyridin-6-yl)cyclopropanecarboxamide]",< 20 nM
18,"O=C(Nc1ccc(-c2nc(NC(=O)C3CC3)nc3[nH]ccc23)cc1)NC1CC1 [Example 437, N-(4-(4-(3-cyclopropylureido)phenyl)-7H-pyrrolo[2,3-d]pyrimidin-2-yl)cyclopropanecarboxamide]",> 200 nM
19,"O=C(Nc1cc(C2=CCN(CC3CC3(F)F)CC2)c2cc[nH]c2n1)C1CC1 (centres unmarked) [Example 489, N-(4-(1-((2,2-difluorocyclopropyl)methyl)-1,2,3,6-tetrahydropyridin-4-yl)-1H-pyrrolo[2,3-b]pyridin-6-yl)cyclopropanecarboxamide]",20 to 200 nM
20,"COC(=O)C(C)C(=O)N1CC=C(c2cc(NC(=O)C3CC3)nc3[nH]ccc23)C(C)C1 (centres unmarked) [Example 320, methyl 3-(4-(6-(cyclopropanecarboxamido)-1H-pyrrolo[2,3-b]pyridin-4-yl)-3-methyl-3,6-dihydropyridin-1 (2H)-yl)-2-methyl-3-oxopropanoate]",> 200 nM
21,"Cc1cnc(C(=O)N2CC=C(c3cc(NC(=O)C4CC4)nc4[nH]ccc34)C(C)C2)cn1 (centres unmarked) [Example 344, N-(4-(3-methyl-1-(5-methylpyrazine-2-carbonyl)-1,2,3,6-tetrahydropyridin-4-yl)-1H-pyrrolo[2,3-b]pyridin-6-yl)cyclopropanecarboxamide]",> 200 nM

# Continued, values first:
row,IC50,Structure (SMILES)
1,20 to 200 nM,"CCCS(=O)(=O)Nc1ccc(-c2cc(NC(=O)C3CC3)nc3[nH]ccc23)c(C(F)(F)F)c1 [Example 119, N-(4-(4-(propylsulfonamido)-2-(trifluoromethyl)phenyl)-1H-pyrrolo[2,3-b]pyridin-6-yl)cyclopropanecarboxamide]"
2,20 to 200 nM,"Cc1cc(NS(=O)(=O)C2CCC2)ccc1-c1cc(NC(=O)C2CC2)nc2[nH]ccc12 [Example 91, N-(4-(4-(cyclobutanesulfonamido)-2-methylphenyl)-1H-pyrrolo[2,3-b]pyridin-6-yl)cyclopropanecarboxamide]"
3,20 to 200 nM,"CCc1cc(NS(=O)(=O)C2CCCCC2)ccc1-c1cc(NC(=O)C2CC2)nc2[nH]ccc12 [Example 112, N-(4-(4-(cyclohexanesulfonamido)-2-ethylphenyl)-1H-pyrrolo[2,3-b]pyridin-6-yl)cyclopropanecarboxamide]"
4,> 200 nM,"CCC1CN(C(=O)OC(C)(C)C)CC=C1c1cc(NC(=O)C2CC2)nc2[nH]ccc12 (centres unmarked) [Example 458, tert-butyl 4-(6-(cyclopropanecarboxamido)-1H-pyrrolo[2,3-b]pyridin-4-yl)-3-ethyl-3,6-dihydropyridine-1 (2H)-carboxylate]"
5,20 to 200 nM,"CCS(=O)(=O)NC1CCC(c2cc(NC(=O)C3CC3)nc3[nH]ccc23)CC1 (centres unmarked) [Example 645, N-(4-(4-(ethylsulfonamido)cyclohexyl)-1H-pyrrolo[2,3-b]pyridin-6-yl)cyclopropanecarboxamide]"
6,> 200 nM,"O=C(Nc1cc(N2CCN(S(=O)(=O)N3CCOCC3)CC2)c2cc[nH]c2n1)C1CC1 [Example 673, N-(4-(4-(morpholinosulfonyl)piperazin-1-yl)-1H-pyrrolo[2,3-b]pyridin-6-yl)cyclopropanecarboxamide]"
7,< 20 nM,"O=C(Nc1cc(-c2ccc(NS(=O)(=O)C3CS(=O)(=O)C3)cc2)c2cc[nH]c2n1)C1CC1 [Example 11, N-(4-(4-((1,1-dioxidothietane)-3-sulfonamido)phenyl)-1H-pyrrolo[2,3-b]pyridin-6-yl)cyclopropanecarboxamide]"
8,< 20 nM,"Cc1cc(NS(=O)(=O)CC2(CC#N)CC2)ccc1-c1cc(NC(=O)C2CC2)nc2[nH]ccc12 [Example 103, N-(4-(4-(((1-(cyanomethyl)cyclopropyl)methyl)sulfonamido)-2-methylphenyl)-1H-pyrrolo[2,3-b]pyridin-6-yl)cyclopropanecarboxamide]"
9,< 20 nM,"O=C(Nc1cc(-c2ccc(NS(=O)(=O)CC3CCOCC3)c(F)c2)c2cc[nH]c2n1)C1CC1 [Example 73, N-(4-(3-fluoro-4-(((tetrahydro-2H-pyran-4-yl)methyl)sulfonamido)phenyl)-1H-pyrrolo[2,3-b]pyridin-6-yl)cyclopropanecarboxamide]"
10,20 to 200 nM,"Cc1cc(NS(=O)(=O)C2CC2)ccc1-c1cc(NC(=O)C2CC2)nc2[nH]ccc12 [Example 90, N-(4-(4-(cyclopropanesulfonamido)-2-methylphenyl)-1H-pyrrolo[2,3-b]pyridin-6-yl)cyclopropanecarboxamide]"
11,> 200 nM,"O=C(Nc1cc(C2=CCN(S(=O)(=O)CC3CCOCC3)CC2)c2cc[nH]c2n1)C1CC1 [Example 169, N-(4-(1-(((tetrahydro-2H-pyran-4-yl)methyl)sulfonyl)-1,2,3,6-tetrahydropyridin-4-yl)-1H-pyrrolo[2,3-b]pyridin-6-yl)cyclopropanecarboxamide]"
